# Reference: PMC3848474, “Different effects of progesterone and estradiol on chimeric and wild type aldosterone synthase in vitro” (Reproductive Biology and Endocrinology : RB&E, 2013)
# Molecular target: T1, wild type aldosterone synthase (ASWT, CYP11B2) (Homo sapiens, UniProt P19099)
# T1 construct: full ASWT cDNA
# T1 sequence (P19099 25-503): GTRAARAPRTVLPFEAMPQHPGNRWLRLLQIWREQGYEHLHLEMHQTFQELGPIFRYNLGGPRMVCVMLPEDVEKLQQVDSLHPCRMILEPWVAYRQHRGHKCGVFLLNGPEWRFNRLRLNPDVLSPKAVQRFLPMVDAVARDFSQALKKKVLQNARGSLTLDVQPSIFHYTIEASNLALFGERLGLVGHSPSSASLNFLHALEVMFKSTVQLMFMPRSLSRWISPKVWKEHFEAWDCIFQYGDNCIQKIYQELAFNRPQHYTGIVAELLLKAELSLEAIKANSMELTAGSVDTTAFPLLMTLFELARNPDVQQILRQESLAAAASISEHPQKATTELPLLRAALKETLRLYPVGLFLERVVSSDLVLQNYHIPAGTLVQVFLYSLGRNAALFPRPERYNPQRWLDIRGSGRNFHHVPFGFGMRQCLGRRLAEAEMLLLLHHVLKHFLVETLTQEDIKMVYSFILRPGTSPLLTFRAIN
# Assay: aldosterone production from DOC in CYP11B2-transfected HEK-293 cells, HPLC-MS/MS; Km/Vmax shift
# Assay type: cell-based
smiles,measurement,value
CC(=O)[C@H]1CC[C@H]2[C@@H]3CCC4=CC(=O)CC[C@]4(C)[C@H]3CC[C@]12C [progesterone],IC50,2.24 µM
